Assay results from US4596710A, “Gallium chloride as a new anti-cancerous drug” (priority 1981, dated 1986).

How the values were obtained:
[1] = Clinical and biological tolerance in patients; conditions: Adriamycine 50 mg + 5-fluoro-uracil 900 mg + Endoxan 900 mg; before gallium chloride; alcoholic patient
Description: Mrs. […] Post-operative chemotherapy (5-fluoro-uracil and endoxan) was then effected up to April 1979. At that time, […] underwent a second operation with excision of the remaining cervix and omentectomy. […] Cobalt therapy was then carried out from Nov. 5th, 1979 to Feb. 5th, 1980 on the abdomen, pelvis and diaphragm cupolas, then further chemotherapy (hexamethylmelamine) from August to October 1980. […] Treatment by gallium chloride started on Nov. 1 st, 1980 at the posology of 300 mg per day per os in three doses of 100 mg. […] An echotomograph on Dec. […] A third echotomograph was made on Jan. […] On Mar.
The treatment by gallium chloride was started on May 15th, 1981, at the posology of 600 mg/24 hours up to Sept. 20th, 1981, in association with a heparinotherapy at mini-doses. This heparinotherapy had been prescribed to prevent a phlebitis or pulmonary embolism following the surgical operation of April 1981 and had not been interrupted in order not to provoke the phenomenon of tumoral flare-up. [Calciparin (heparin calcium salt) 0.2 ml, 3 times per day by sub-cutaneous route]. […] On Sept. […] This was the case. . . […] 29th, 1981. […] Up to Nov. […] It was from Sept.
HOT... […] , was operated on May 14th, 1981 for an adenocarcinoma of the colon. […] An almost total colectomy was carried out, leaving 20 cm of sigmoid and a resection of the small bowel over a length of 15 cm. […] On Oct. […] An exploratory laparotomy was made on Nov. […] 7th, 1982.
Gallium chloride therapy was started on Sept.

[2] = cited from earlier work
[3] = Anghileri 1973; cited from earlier work

Compound	pancytopenia after combination chemotherapy, 2nd patient [1]	also measured
O=c1[nH]cc(F)c(=O)[nH]1 [5-fluoro-uracil, reference compound]	a pancytopenia which would persist for several months	
COc1cccc2c1C(=O)c1c(O)c3c(c(O)c1C2=O)C[C@@](O)(C(=O)CO)C[C@@H]3O[C@H]1C[C@H](N)[C@H](O)[C@H](C)O1 [Adriamycine, reference compound]	a pancytopenia which would persist for several months	
O=P1(N(CCCl)CCCl)NCCCO1 (stereo not drawn) [Endoxan, reference compound]	a pancytopenia which would persist for several months	
O=[N+]([O-])[O-].O=[N+]([O-])[O-].O=[N+]([O-])[O-].[Ga+3] [gallium nitrate]		renal toxicity ([2]; human therapeutics): excessive renal toxicity; results of tests in human therapeutics ([2]; in vivo): minor results
gallium		displacement of magnesium from the cell [3]: capable of displacing magnesium from the cell
